Results reported in US20240158446A1, “CYCLIC COMPOUND HAVING SELECTIVE INHIBITORY ACTION ON KRAS OVER HRAS AND NRAS” (CHUGAI SEIYAKU KABUSHIKI KAISHA, priority 2021, published 2024).
*1 amine or outer side, *2 acyl side, *3 side chain or, on linkers, in order; H or OH if unused. Where a SMILES comes first, the peptide text is derived from it. Bridges are numbered along the chain shown (N, C = ends). [ ]: non-standard residue; d: D form. The star is where a group is joined. X47 = CC(C)(C)CCN([C@@H](Cc1ccc(C(F)(F)F)cc1)C(=O)[*:2])[*:1]; hPhe(3-Cl-4-CF3) = N[C@@H](CCc1ccc(C(F)(F)F)c(Cl)c1)C(=O)O; NPrPhe(4-CF3) = CCCN[C@@H](Cc1ccc(C(F)(F)F)cc1)C(=O)O; X46 = CCCCN([C@@H](Cc1ccc(C)cc1)C(=O)[*:2])[*:1]; 3Oxa8azabicyclo(3.2.1)octane = C1CC2COCC1N2*; NEtPhe(4-Me) = CCN[C@@H](Cc1ccc(C)cc1)C(=O)O; NMeGly(cPent) = CN[C@H](C(=O)O)C1CCCC1; Hyp = O=C(O)[C@@H]1C[C@@H](O)CN1; NMeD = CN[C@@H](CC(=O)O)C(=O)O; NMeL = CN[C@@H](CC(C)C)C(=O)O; Morpholide = C1CN(*)CCO1; NMeA = CN[C@@H](C)C(=O)O; Ac5c = NC1(C(=O)O)CCCC1; Aze = O=C(O)[C@@H]1CCN1; X51 = C1CCC(*)OC1; Sar = CNCC(=O)O

Assays:
[1] = target: GDP-bound NRAS wild-type protein (Homo sapiens, UniProt P01111); assay: Binding to NRAS by surface plasmon resonance (SPR), Single Cycle Kinetics; conditions: for NRAS/KRAS (ratio of KD value for NRAS to KD value for KRAS) / NRAS/KRAS (ratio of KD value with respect to NRAS to KD value with respect to KRAS): SPR, GDP-bound NRAS wild-type protein vs GDP-bound KRAS wild-type protein
[2] = target: GDP-bound HRAS wild-type protein (Homo sapiens, UniProt P01112); assay: Binding to HRAS by surface plasmon resonance (SPR), Single Cycle Kinetics; conditions: for HRAS/KRAS (ratio of KD value for HRAS to KD value for KRAS) / HRAS/KRAS (ratio of KD value with respect to HRAS to KD value with respect to KRAS): SPR, GDP-bound HRAS wild-type protein vs GDP-bound KRAS wild-type protein
GDP-bound HRAS wild-type protein, sequence (P01112 whole entry): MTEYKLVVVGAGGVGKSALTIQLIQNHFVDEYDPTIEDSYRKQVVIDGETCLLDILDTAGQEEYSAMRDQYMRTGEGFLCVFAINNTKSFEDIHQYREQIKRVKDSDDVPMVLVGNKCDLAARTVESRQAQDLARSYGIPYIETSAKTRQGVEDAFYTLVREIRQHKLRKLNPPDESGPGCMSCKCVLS

GDP-bound NRAS wild-type protein, sequence (P01111 whole entry): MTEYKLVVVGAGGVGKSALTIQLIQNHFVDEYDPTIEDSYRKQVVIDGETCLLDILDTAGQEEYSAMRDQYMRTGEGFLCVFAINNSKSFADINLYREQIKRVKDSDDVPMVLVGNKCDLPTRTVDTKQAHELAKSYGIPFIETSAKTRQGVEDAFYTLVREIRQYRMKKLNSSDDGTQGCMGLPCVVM

SMILES	NRAS/KRAS (ratio of KD value for NRAS to KD value for KRAS) [1]	HRAS/KRAS (ratio of KD value for HRAS to KD value for KRAS) [2]	other results
CCCN1C(=O)[C@@H]2CCN2C(=O)[C@H](C)N(C)C(=O)[C@H]([C@@H](C)CC)NC(=O)[C@H](CC(C)C)N(C)C(=O)C[C@@H](C(=O)N2CCOCC2)N(C)C(=O)[C@H](C2CCCC2)N(C)C(=O)C2(CCCC2)NC(=O)[C@@H]2C[C@H](O)CN2C(=O)[C@H](CCc2ccc(C(F)(F)F)c(Cl)c2)NC(=O)CN(C)C(=O)[C@@H]1Cc1ccc(C(F)(F)F)cc1 (stereo in doubt) [PP0238]	C (A compound having a KD ratio of 0.1 or more and less than 3 is denoted as C)	C (A compound having a KD ratio of 0.1 or more and less than 3 is denoted as C)	–
CC[C@H](C)[C@@H]1NC(=O)[C@H](CC(C)C)N(C)C(=O)C[C@@H](C(=O)N2CCOCC2)N(C)C(=O)[C@H](C2CCCC2)N(C)C(=O)C2(CCCC2)NC(=O)[C@@H]2CCCN2C(=O)[C@H](CCc2ccc(C(F)(F)F)c(Cl)c2)NC(=O)CN(C)C(=O)[C@H](Cc2ccc(C(F)(F)F)cc2)N2CCCCC[C@@H](C2=O)N(C)C(=O)CN(C)C1=O (stereo in doubt) [PP0319]	B (a compound having 3 or more and less than 10 is denoted as B)	B (a compound having 3 or more and less than 10 is denoted as B)	–
CCCN1C(=O)CN(C)C(=O)CN(C)C(=O)[C@H]([C@@H](C)CC)NC(=O)[C@@H]2CCCCCCC[C@@](C)(NC(=O)[C@@H]3C[C@@H](OCC)CN3C(=O)[C@H](CCc3cc(F)c(C(F)(F)F)c(F)c3)NC(=O)CN(C)C(=O)[C@@H]1Cc1ccc(C(F)(F)F)cc1)C(=O)N(C)[C@@H](C1CCCC1)C(=O)N(C)[C@H](C(=O)N1CCOCC1)CC(=O)N2C (stereo in doubt) [PP0898]	B (a compound having 3 or more and less than 10 is denoted as B)	B (a compound having 3 or more and less than 10 is denoted as B)	–
CCCN1C(=O)CN(C)C(=O)CN(C)C(=O)[C@H]([C@@H](C)CC)NC(=O)[C@@H]2COCC=CC[C@@](C)(NC(=O)[C@@H]3C[C@@H](OCC)CN3C(=O)[C@H](CCc3cc(F)c(C(F)(F)F)c(F)c3)NC(=O)CN(C)C(=O)[C@@H]1Cc1ccc(C(F)(F)F)cc1)C(=O)N(C)[C@@H](C1CCCC1)C(=O)N(C)[C@H](C(=O)N1CCOCC1)CC(=O)N2C (stereo in doubt) [PP0903]	B (a compound having 3 or more and less than 10 is denoted as B)	C (A compound having a KD ratio of 0.1 or more and less than 3 is denoted as C)	–
CC[C@H](C)[C@@H]1NC(=O)[C@H](CC(C)C)N(C)C(=O)C[C@@H](C(=O)N2CCOCC2)N(C)C(=O)[C@H](C2CCCC2)N(C)C(=O)C2(CCC2)NC(=O)[C@@H]2C[C@@H](OCCC(F)(F)F)CN2C(=O)[C@H](CCc2cc(F)c(C(F)(F)F)c(F)c2)NC(=O)CN(C)C(=O)[C@H](Cc2ccc(C(F)(F)F)cc2)N2CCCC[C@@H](C2=O)N(C)C(=O)CN(C)C1=O (stereo in doubt) [PP0998]	B (a compound having 3 or more and less than 10 is denoted as B)	B (a compound having 3 or more and less than 10 is denoted as B)	–
CCO[C@@H]1C[C@H]2C(=O)NC3(CCC3)C(=O)N(C)[C@@H](C3CCCC3)C(=O)N(C)[C@H](C(=O)N(C)CC)CC(=O)N(C)[C@H]3CCCCCc4ccc(cc4)C[C@@H](C(=O)N(C)CC(=O)N[C@@H](CCc4cc(F)c(C(F)(F)F)c(F)c4)C(=O)N2C1)N1CC/C=C\C[C@@H](C1=O)N(C)C(=O)CN(C)C(=O)[C@H]([C@@H](C)CC)NC3=O (stereo in doubt) [PP2117]	A (a compound having 10 or more and less than 20 is denoted as A)	A (a compound having 10 or more and less than 20 is denoted as A)	–
CCOC[C@H]1C(=O)N[C@@H]([C@@H](C)CC)C(=O)N(C)CC(=O)N(C)[C@H]2C/C=C\CCN(C2=O)[C@@H](Cc2ccc(CC)cc2)C(=O)N(C)CC(=O)N[C@@H](CCc2ccc(C(F)(F)F)c(OC)c2)C(=O)N2C[C@@H](C)C[C@H]2C(=O)NC2(CC(C)(C)C2)C(=O)N(C)[C@@H](C2CCCC2)C(=O)N(C)[C@H](C(=O)N(C)CC)CC(=O)N1C (stereo in doubt) [PP2696]	–	–	NRAS/KRAS (ratio of KD value with respect to GDP-bound NRAS wild-type protein to KD value with respect to KRAS) ([1]; SPR KD ratio NRAS/KRAS, class symbols): A (a compound having 10 or more and less than 20 is denoted as A); HRAS/KRAS (ratio of KD value with respect to GDP-bound HRAS wild-type protein to KD value with respect to KRAS) ([2]; SPR KD ratio HRAS/KRAS, class symbols): B (a compound having 3 or more and less than 10 is denoted as B)
CCCCN1C(=O)[C@@H]2CCN2C(=O)[C@H](C)N(C)C(=O)[C@H]([C@@H](C)CC)NC(=O)[C@H](CC(C)C)N(C)C(=O)C[C@@H](C(=O)N2CCOCC2)N(C)C(=O)[C@H](C2CCCC2)N(C)C(=O)C2(CCCC2)NC(=O)[C@@H]2CCCN2C(=O)[C@H](CCc2ccc(C(F)(F)F)c(Cl)c2)NC(=O)CN(C)C(=O)[C@@H]1Cc1ccc(C)cc1 [PP0055] ([NMeL]I[NMeA][Aze][X46][Sar][hPhe(3-Cl-4-CF3)]P[Ac5c][NMeGly(cPent)][NMeD]-Morpholide; lactam N-11)	C (A compound having a KD ratio of 0.1 or more and less than 3 is denoted as C)	C (A compound having a KD ratio of 0.1 or more and less than 3 is denoted as C)	–
CC[C@H](C)[C@@H]1NC(=O)[C@H](CC(C)C)N(C)C(=O)C[C@@H](C(=O)N2CCOCC2)N(C)C(=O)[C@H](C2CCCC2)N(C)C(=O)C2(CCCC2)NC(=O)[C@@H]2C[C@@H](OC3CCCCO3)CN2C(=O)[C@H](CCc2ccc(C(F)(F)F)c(Cl)c2)NC(=O)CN(C)C(=O)[C@H](Cc2ccc(C)cc2)N(CC)C(=O)[C@@H]2CCN2C(=O)[C@H](C)N(C)C1=O (stereo partly shown) [PP0067] ([NMeL]I[NMeA][Aze][NEtPhe(4-Me)][Sar][hPhe(3-Cl-4-CF3)][Hyp](X51)[Ac5c][NMeGly(cPent)][NMeD]-Morpholide; lactam N-11)	C (A compound having a KD ratio of 0.1 or more and less than 3 is denoted as C)	C (A compound having a KD ratio of 0.1 or more and less than 3 is denoted as C)	–
CC[C@H](C)[C@@H]1NC(=O)[C@H](CC(C)C)N(C)C(=O)C[C@@H](C(=O)N2CCOCC2)N(C)C(=O)[C@H](C2CCCC2)N(C)C(=O)C2(CCCC2)NC(=O)[C@@H]2C[C@@H](OC3CCCCO3)CN2C(=O)[C@H](CCc2ccc(C(F)(F)F)c(Cl)c2)NC(=O)CN(C)C(=O)[C@H](Cc2ccc(C)cc2)N(CC)C(=O)CN(C)C(=O)CN(C)C1=O (stereo partly shown) [PP0068] ([NMeL]I[Sar][Sar][NEtPhe(4-Me)][Sar][hPhe(3-Cl-4-CF3)][Hyp](X51)[Ac5c][NMeGly(cPent)][NMeD]-Morpholide; lactam N-11)	C (A compound having a KD ratio of 0.1 or more and less than 3 is denoted as C)	C (A compound having a KD ratio of 0.1 or more and less than 3 is denoted as C)	–
CC[C@H](C)[C@@H]1NC(=O)[C@H](CC(C)C)N(C)C(=O)C[C@@H](C(=O)N2CCOCC2)N(C)C(=O)[C@H](C2CCCC2)N(C)C(=O)C2(CCCC2)NC(=O)[C@@H]2CCCN2C(=O)[C@H](CCc2ccc(C(F)(F)F)c(Cl)c2)NC(=O)CN(C)C(=O)[C@H](Cc2ccc(C(F)(F)F)cc2)N(CCC(C)(C)C)C(=O)CN(C)C(=O)CN(C)C1=O [PP0127] ([NMeL]I[Sar][Sar][X47][Sar][hPhe(3-Cl-4-CF3)]P[Ac5c][NMeGly(cPent)][NMeD]-Morpholide; lactam N-11)	C (A compound having a KD ratio of 0.1 or more and less than 3 is denoted as C)	C (A compound having a KD ratio of 0.1 or more and less than 3 is denoted as C)	–
CCCN1C(=O)[C@@H]2CCN2C(=O)[C@H](C)N(C)C(=O)[C@H]([C@@H](C)CC)NC(=O)[C@H](CC(C)C)N(C)C(=O)C[C@@H](C(=O)N2C3CCC2COC3)N(C)C(=O)[C@H](C2CCCC2)N(C)C(=O)C2(CCCC2)NC(=O)[C@@H]2CCCN2C(=O)[C@H](CCc2ccc(C(F)(F)F)c(Cl)c2)NC(=O)CN(C)C(=O)[C@@H]1Cc1ccc(C(F)(F)F)cc1 [PP0182] ([NMeL]I[NMeA][Aze][NPrPhe(4-CF3)][Sar][hPhe(3-Cl-4-CF3)]P[Ac5c][NMeGly(cPent)][NMeD]-{3Oxa8azabicyclo(3.2.1)octane}; lactam N-11)	C (A compound having a KD ratio of 0.1 or more and less than 3 is denoted as C)	B (a compound having 3 or more and less than 10 is denoted as B)	–
CCO[C@@H]1C[C@H]2C(=O)NC3(CCC3)C(=O)N(C)[C@@H](C3CCCC3)C(=O)N(C)[C@H](C(=O)N(C)C)CC(=O)N(C)[C@@H](CC(C)C)C(=O)N[C@@H]([C@@H](C)CC)C(=O)N(C)CC(=O)N(C)[C@H]3CCCCCN(C3=O)[C@@H](Cc3ccc(C(F)(F)F)cc3)C(=O)N(C)CC(=O)N[C@@H](CCc3cc(F)c(C(F)(F)F)c(F)c3)C(=O)N2C1 [PP0469]	–	–	NRAS/KRAS (ratio of KD value with respect to NRAS to KD value with respect to KRAS) [1]: B (a compound having 3 or more and less than 10 is denoted as B); HRAS/KRAS (ratio of KD value with respect to HRAS to KD value with respect to KRAS) [2]: B (a compound having 3 or more and less than 10 is denoted as B)
CC[C@H](C)[C@@H]1NC(=O)[C@H](CC(C)C)N(C)C(=O)C[C@@H](C(=O)N2CCOCC2)N(C)C(=O)[C@H](C2CCCC2)N(C)C(=O)[C@](C)(CC)NC(=O)[C@@H]2CCCN2C(=O)[C@H](CCc2cc(F)c(C(F)(F)F)c(F)c2)NC(=O)CN(C)C(=O)[C@H](Cc2ccc(C(F)(F)F)cc2)N2CCCCC[C@@H](C2=O)N(C)C(=O)CN(C)C1=O [PP0500]	–	–	NRAS/KRAS (ratio of KD value with respect to NRAS to KD value with respect to KRAS) [1]: B (a compound having 3 or more and less than 10 is denoted as B); HRAS/KRAS (ratio of KD value with respect to HRAS to KD value with respect to KRAS) [2]: B (a compound having 3 or more and less than 10 is denoted as B)
